In patent publication US7927811B2, “Polypeptides having brain-localizing activity and uses thereof” (Proteus Sciences Co., Ltd., priority 2003, dated 2011):

Test system: mouse brain tissues (cerebral parenchyma)
Test: Brain-localizing peptide conjugates bound to gold colloids administered to mice; transmission electron microscopy of brain tissue sections
Assay type: in vivo
Settings: biotin-conjugated peptide + avidin-gold particles administered to mice; electron micrographs, hippocampal pyramidal cells and cerebellar Purkinje cell region
Text: The present inventors produced brain-localizing peptide conjugates. The conjugates are molecules that can have a cyclic structure due to the formation of a disulfide bond between cysteine residues in a peptide molecule of the present invention, and may also have biotin attached to them. The conjugates have affinity to avidin compounds.
The conjugates were bound to gold colloids and administered to mice, and the mice were subjected to experiments that evaluate the brain-localizing activity of the peptides of the present invention (observation of brain tissue sections under a transmission electron microscope).
[Section Preparation] • (i) trimming • (ii) preparation of thick sections (2 to 3 μm thick) using a glass knife • (iii) preparation of ultra-thin sections (50 to 100 nm thick) using a diamond knife • (iv) electron staining: 2% uranium acetate and then 1% lead citrate (3 minutes each) • (v) transmission electron microscope observation (acceleration voltage of 80 kV)
In the present experiment, T2J002 (SEQ ID NO: 2) and T2J004 (SEQ ID NO: 4) were used as peptides of the present invention. The arrows show positions of the gold particle-bound peptide molecules of the present invention. […] More specifically, the peptides of the present invention were confirmed to have brain-localizing activity.

Sequence	transport of gold colloids into the cerebral parenchyma (brain-localizing activity)
CVVRHLQQC [T2J004]	successfully transport the gold colloids into the cerebral parenchyma
CSLNTRSQC [T2J002]	successfully transport the gold colloids into the cerebral parenchyma
